# Columns and labels:
# [1] = system: Corynebacterium jeikeium; assay: MIC test (growth inhibition, 96 well plates, OD); type: cell-based; settings: read-out: Minimum Inhibitory Concentration (MIC)
# [2] = system: Staphylococcus hominis; assay: MIC test (growth inhibition, 96 well plates, OD); type: cell-based; settings: read-out: Minimum Inhibitory Concentration (MIC)
# [3] = system: Candida albicans; assay: MIC test (growth inhibition, 96 well plates, OD); type: cell-based; settings: read-out: Minimum Inhibitory Concentration (MIC)
# [4] = system: Propionibacterium acnes; assay: MIC test (growth inhibition, 96 well plates, OD); type: cell-based; settings: Cutibacterium acnes; read-out: Minimum Inhibitory Concentration (MIC)
# [5] = system: Staphylococcus aureus; assay: MIC test (growth inhibition, 96 well plates, OD); type: cell-based; settings: read-out: Minimum Inhibitory Concentration (MIC)
# [6] = system: Escherichia coli; assay: MIC test (growth inhibition, 96 well plates, OD); type: cell-based; settings: read-out: Minimum Inhibitory Concentration (MIC)
# [7] = system: Aspergillus brasiliensis (AB); assay: Preservation efficacy test (PET), European Pharmacopoeia 5.1.3; type: cell-based
# Procedure, shortened: (§1)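 Preparations challenged with prescribed inoculums per European Pharmacopoeia 5.1.3, counting microorganisms after the prescribed time. Adequate preservation means a significant fall or no increase in counts.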
# [8] = system: Candida albicans (CA); assay: as above; type: cell-based
# Procedure, shortened: as §1
# [9] = Sensory evaluation on the backside of the hand (spreading, fatty/greasy skin feel, absorption), untrained panellists; settings: for Absorption/remaining residue with alkanediol: scale 1 to 5
# Protocol: For evaluating the sensory behaviour, liquid lipophilic components specified in the following table were blended with 1,2-heptanediol or 2,3-heptanediol or a mixture of 1,2-heptanediol and 2,3-heptanediol or 1,2-octanediol or 2,3-octanediol or a mixture of 1,2-octanediol and 2,3-octanediol (formulation) in a ratio of 85:15 and assessed by untrained panellists in comparison to the liquid lipophilic component without addition of the specified alkanediols (placebo).
# The test procedure was carried as follows: For evaluating the sensory behaviour of 1,2-alkanediols and/or 2,3-alkanediols in combination with different liquid lipophilic components, oil components specified in the following table were blended with a 1,2-alkanediol or a 2,3-alkanediol or a mixture including a 1,2-alkanediol and a 2,3-alkanediol in a ratio as specified in Table 53 and assessed by untrained panellists in comparison to the liquid lipophilic component without addition of the 1,2-alkanediol or 2,3-alkanediol or the mixture including a 1,2-alkanediol and 2,3-alkanediol (placebo).
# Test Procedure: • Hands were pre-washed with liquid soap by following a defined procedure; 30 μl of corresponding sample was applied on the backside of each hand (randomized); • After 30 s the spreading behaviour of the respective formulation on skin was evaluated versus the respective oil component without 1,2-heptanediol on a scale from 1 to 5 (1=low spreading; 5=high spreading); • The samples were distributed with the fingertips of middle and forefinger with 2×5 cycles; • After 2 minutes, the fatty/greasy skin feel was evaluated on a scale from 1 to 5 (1=low fatty/greasy skin feel; 5=high fatty/greasy skin feel); • Furthermore the applicants were asked to assess the absorption, i.e. the impression of amount of remaining residue on the skin on a scale from 1 to 5 (1=low absorption; 5=high absorption).
# [10] = blend with Argan Oil vs without
# [11] = blend with Avocado Oil vs without
# [12] = blend with Cacao butter vs without
# [13] = blend with Castor Oil vs without
# [14] = blend with Coconut Oil vs without
# [15] = blend with Grapeseed Oil vs without
# [16] = blend with Helianthus Annuus (Sunflower) Seed Oil vs without
# [17] = blend with Helianthus Annuus (Sunflower) Seed Oil
# [18] = blend with Octocrylene (Neo Heliopan 303), vs without
# [19] = blend with Octocrylene (Neo Heliopan 303)
# [20] = blend with Olive Oil vs without
structure (smiles),measurement,setting,value
"CCCCC(O)C(C)O (centres unmarked) [2,3-heptanediol]",MIC,[1],> 5000 µg/mL
same,MIC,[2],> 5000 µg/mL
same,MIC,[3],> 5000 µg/mL
same,MIC,[4],> 5000 µg/mL
same,MIC,[5],20000 µg/mL
same,MIC,[6],> 5000 µg/mL
same,number of microorganisms after 2 days,[7]; 0.1% in shampoo,"1,600,000"
same,number of microorganisms after 7 days,[7]; 0.1% in shampoo,"970,000"
same,number of microorganisms after 14 days,[7]; 0.1% in shampoo,"110,000"
same,number of microorganisms after 28 days,[7]; 0.1% in shampoo,"120,000"
same,number of microorganisms after 2 days,[7]; 0.2% in o/w emulsion,"1,600,000"
same,number of microorganisms after 7 days,[7]; 0.2% in o/w emulsion,"1,600,000"
same,number of microorganisms after 14 days,[7]; 0.2% in o/w emulsion,"3,000,000"
same,number of microorganisms after 28 days,[7]; 0.2% in o/w emulsion,"2,000,000"
same,number of microorganisms after 2 days,[7]; 0.4% in o/w emulsion,"790,000"
same,number of microorganisms after 7 days,[7]; 0.4% in o/w emulsion,"930,000"
same,number of microorganisms after 14 days,[7]; 0.4% in o/w emulsion,"500,000"
same,number of microorganisms after 28 days,[7]; 0.4% in o/w emulsion,"390,000"
same,number of microorganisms after 2 days,[7]; 0.4% in shampoo,"2,200,000"
same,number of microorganisms after 7 days,[7]; 0.4% in shampoo,"350,000"
same,number of microorganisms after 14 days,[7]; 0.4% in shampoo,"130,000"
same,number of microorganisms after 28 days,[7]; 0.4% in shampoo,"140,000"
same,number of microorganisms after 2 days,[8]; 0.1% in shampoo,"110,000"
same,number of microorganisms after 7 days,[8]; 0.1% in shampoo,"20,000"
same,number of microorganisms after 14 days,[8]; 0.1% in shampoo,100
same,number of microorganisms after 28 days,[8]; 0.1% in shampoo,1
same,number of microorganisms after 2 days,[8]; 0.2% in o/w emulsion,"1,900,000"
same,number of microorganisms after 7 days,[8]; 0.2% in o/w emulsion,"2,200,000"
same,number of microorganisms after 14 days,[8]; 0.2% in o/w emulsion,"2,100,000"
same,number of microorganisms after 28 days,[8]; 0.2% in o/w emulsion,"370,000"
same,number of microorganisms after 2 days,[8]; 0.4% in o/w emulsion,"640,000"
same,number of microorganisms after 7 days,[8]; 0.4% in o/w emulsion,"350,000"
same,number of microorganisms after 14 days,[8]; 0.4% in o/w emulsion,"130,000"
same,number of microorganisms after 28 days,[8]; 0.4% in o/w emulsion,"11,000"
same,number of microorganisms after 2 days,[8]; 0.4% in shampoo,81
same,number of microorganisms after 7 days,[8]; 0.4% in shampoo,1
same,number of microorganisms after 14 days,[8]; 0.4% in shampoo,1
same,number of microorganisms after 28 days,[8]; 0.4% in shampoo,1
same,Absorption/remaining residue Delta,[9]; [10],1.4
same,Absorption/remaining residue with alkanediol,[9]; blend with Argan Oil,2.4
same,Absorption/remaining residue Delta,[9]; [11],1.4
same,Absorption/remaining residue with alkanediol,[9]; blend with Avocado Oil,2.4
same,Absorption/remaining residue Delta,[9]; [12],0.4
same,Absorption/remaining residue with alkanediol,[9]; blend with Cacao butter,3.2
same,Absorption/remaining residue Delta,"[9]; blend with Caprylic Capric Triglyceride (neutral oil), rows r50-r56, vs without",0.3
same,Absorption/remaining residue with alkanediol,"[9]; blend with Caprylic Capric Triglyceride (neutral oil), rows r50-r56",3
same,Absorption/remaining residue Delta,[9]; [13],0.6
same,Absorption/remaining residue with alkanediol,[9]; blend with Castor Oil,3.8
same,Absorption/remaining residue Delta,"[9]; blend with Cetearyl Nonanoate, rows r199-r201, vs without",1.0
same,Absorption/remaining residue with alkanediol,"[9]; blend with Cetearyl Nonanoate, rows r199-r201",3.8
same,Absorption/remaining residue Delta,[9]; [14],1
same,Absorption/remaining residue with alkanediol,[9]; blend with Coconut Oil,2.4
same,Absorption/remaining residue Delta,[9]; [15],0.8
same,Absorption/remaining residue with alkanediol,[9]; blend with Grapeseed Oil,2.2
same,Absorption/remaining residue Delta,[9]; [16],1
same,Absorption/remaining residue with alkanediol,[9]; [17],2.6
same,Absorption/remaining residue Delta,[9]; [18],0.5
same,Absorption/remaining residue with alkanediol,[9]; [19],3.5
same,Absorption/remaining residue Delta,[9]; [20],2
same,Absorption/remaining residue with alkanediol,[9]; blend with Olive Oil,2
"CCCCCC(O)C(C)O (centres unmarked) [2,3-octanediol]",MIC,[1],5000 µg/mL
same,MIC,[2],> 5000 µg/mL
same,MIC,[3],5000 µg/mL
same,MIC,[4],> 5000 µg/mL
same,MIC,[5],5000 µg/mL
same,MIC,[6],2500 µg/mL
same,number of microorganisms after 2 days,[7]; 0.1% in shampoo,"2,300,000"
same,number of microorganisms after 7 days,[7]; 0.1% in shampoo,"1,300,000"
same,number of microorganisms after 14 days,[7]; 0.1% in shampoo,"250,000"
same,number of microorganisms after 28 days,[7]; 0.1% in shampoo,"250,000"
same,number of microorganisms after 2 days,[7]; 0.1% in wet wipes solution,"12,000,000"
same,number of microorganisms after 7 days,[7]; 0.1% in wet wipes solution,"8,500,000"
same,number of microorganisms after 14 days,[7]; 0.1% in wet wipes solution,"9,300,000"
same,number of microorganisms after 28 days,[7]; 0.1% in wet wipes solution,"12,000,000"
same,number of microorganisms after 2 days,[7]; 0.2% in o/w emulsion,"1,700,000"
same,number of microorganisms after 7 days,[7]; 0.2% in o/w emulsion,"2,000,000"
same,number of microorganisms after 14 days,[7]; 0.2% in o/w emulsion,"2,100,000"
same,number of microorganisms after 28 days,[7]; 0.2% in o/w emulsion,"2,000,000"
same,number of microorganisms after 2 days,[7]; 0.4% in shampoo,"1,100,000"
same,number of microorganisms after 7 days,[7]; 0.4% in shampoo,"1,100,000"
same,number of microorganisms after 14 days,[7]; 0.4% in shampoo,"2,100,000"
same,number of microorganisms after 28 days,[7]; 0.4% in shampoo,"410,000"
same,number of microorganisms after 2 days,[8]; 0.1% in shampoo,"200,000"
same,number of microorganisms after 7 days,[8]; 0.1% in shampoo,"19,000"
same,number of microorganisms after 14 days,[8]; 0.1% in shampoo,390
same,number of microorganisms after 28 days,[8]; 0.1% in shampoo,1
same,number of microorganisms after 2 days,[8]; 0.1% in wet wipes solution,"5,000,000"
same,number of microorganisms after 7 days,[8]; 0.1% in wet wipes solution,"2,400,000"
same,number of microorganisms after 14 days,[8]; 0.1% in wet wipes solution,"6,900,000"
same,number of microorganisms after 28 days,[8]; 0.1% in wet wipes solution,"5,500,000"
same,number of microorganisms after 2 days,[8]; 0.2% in o/w emulsion,"2,000,000"
same,number of microorganisms after 7 days,[8]; 0.2% in o/w emulsion,"1,800,000"
same,number of microorganisms after 14 days,[8]; 0.2% in o/w emulsion,"1,900,000"
same,number of microorganisms after 28 days,[8]; 0.2% in o/w emulsion,"390,000"
same,number of microorganisms after 2 days,[8]; 0.4% in shampoo,"44,000"
same,number of microorganisms after 7 days,[8]; 0.4% in shampoo,"17,000"
same,number of microorganisms after 14 days,[8]; 0.4% in shampoo,510
same,number of microorganisms after 28 days,[8]; 0.4% in shampoo,1
same,Absorption/remaining residue Delta,[9]; [10],1.6
same,Absorption/remaining residue with alkanediol,[9]; blend with Argan Oil,2.2
same,Absorption/remaining residue Delta,[9]; [11],1.4
same,Absorption/remaining residue with alkanediol,[9]; blend with Avocado Oil,2.4
same,Absorption/remaining residue Delta,[9]; [12],0.8
same,Absorption/remaining residue with alkanediol,[9]; blend with Cacao butter,2.8
same,Absorption/remaining residue Delta,[9]; [13],1.4
same,Absorption/remaining residue with alkanediol,[9]; blend with Castor Oil,3
same,Absorption/remaining residue Delta,[9]; [14],1.2
same,Absorption/remaining residue with alkanediol,[9]; blend with Coconut Oil,2.6
same,Absorption/remaining residue Delta,[9]; [15],0.2
same,Absorption/remaining residue with alkanediol,[9]; blend with Grapeseed Oil,2.4
same,Absorption/remaining residue Delta,[9]; [16],0.4
same,Absorption/remaining residue with alkanediol,[9]; [17],3.4
same,Absorption/remaining residue Delta,[9]; [18],1.5
same,Absorption/remaining residue with alkanediol,[9]; [19],2.5
same,Absorption/remaining residue Delta,[9]; [20],1.4
same,Absorption/remaining residue with alkanediol,[9]; blend with Olive Oil,2.6

# Reference: US20230248626A1, “Compositions Comprising (Bio)-Alkanediols” (Symrise AG, priority 0001, published 2023)
